The results in this text go back to patent US10202339B2, “Therapeutic compounds and compositions” (AGIOS PHARMACEUTICALS, INC., priority 2012, dated 2019).

In the test the target is IDH2 R140Q (Homo sapiens (Human), UniProt P48735, R140Q). Put plainly: IDH2 R140Q enzymatic cofactor depletion assay (diaphorase/resazurin). The test is classed as biochemical. As to conditions: IDH2 R140Q enzyme, one hour preincubation with compound, one hour reaction; read-out: Enz R140Q. In short, it runs like this:
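Enzyme preincubated with compound 1 h at room temperature, then reaction started with 50 μM NADPH and 6.3 mM α-KG and run 1 h at room temperature. Remaining NADPH measured by diaphorase (36 μg/ml)/resazurin (60 μM) stop mix, fluorescence read at Ex544/Em590 after 1 min.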
(In general: Alamar Blue is a resazurin reagent that responds to reducing activity.)

Chain of IDH2 R140Q (P48735 40-452 R140Q): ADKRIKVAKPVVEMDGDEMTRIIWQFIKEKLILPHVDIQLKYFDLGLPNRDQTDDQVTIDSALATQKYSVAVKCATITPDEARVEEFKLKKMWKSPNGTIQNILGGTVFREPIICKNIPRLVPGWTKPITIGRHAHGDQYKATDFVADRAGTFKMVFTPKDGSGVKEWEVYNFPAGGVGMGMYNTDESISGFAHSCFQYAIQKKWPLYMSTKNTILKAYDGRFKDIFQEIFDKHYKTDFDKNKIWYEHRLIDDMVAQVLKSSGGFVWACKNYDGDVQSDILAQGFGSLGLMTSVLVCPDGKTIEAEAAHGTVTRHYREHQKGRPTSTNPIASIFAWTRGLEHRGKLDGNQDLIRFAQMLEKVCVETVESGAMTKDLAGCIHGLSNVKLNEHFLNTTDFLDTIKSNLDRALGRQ

As to `O=C(Nc1ccc(F)cc1F)Nc1cc(S(=O)(=O)NCC(F)(F)F)ccc1OCC1CC1` [Compound 188, 4-(cyclopropylmethoxy)-3-(3-(2,4-difluorophenyl)ureido)-N-(2,2,2-trifluoroethyl)benzenesulfonamide], the IC50 was in the range of 0.1 to 1 µM. Regarding `O=C(Nc1cc(C(F)(F)F)ccn1)Nc1cc(S(=O)(=O)NCC(F)(F)F)ccc1OCC1CC1` [Compound 189, 4-(cyclopropylmethoxy)-N-(2,2,2-trifluoroethyl)-3-(3-(4-(trifluoromethyl)pyridin-2-yl)ureido)benzene sulfonamide], the IC50 lay in the range of 0.1 to 1 µM. The value for `CCOc1ccc(S(=O)(=O)NCC(F)(F)F)cc1NC(=O)Nc1cc(C(F)(F)F)ccn1` [Compound 190, 4-ethoxy-N-(2,2,2-trifluoroethyl)-3-(3-(4-(trifluoromethyl)pyridin-2-yl)ureido)benzenesulfonamide] was 0.1 to 1 µM. The value for `CCOc1ccc(S(=O)(=O)NCC(F)(F)F)cc1NC(=O)Nc1ncc(Cl)s1` [Compound 191, 3-(3-(5-chlorothiazol-2-yl)ureido)-4-ethoxy-N-(2,2,2-trifluoroethyl)benzenesulfonamide] was 0.1 to 1 µM. On to `O=C(Nc1cccc(C(F)(F)F)c1)Nc1cc(S(=O)(=O)Nc2ccccc2)ccc1Oc1ccccc1` [Compound 192, 4-phenoxy-N-phenyl-3-(3-(3-(trifluoromethyl)phenyl)ureido)benzenesulfonamide], for which the IC50 fell in the range of 0.1 to 1 µM. The same measure for `O=C(Nc1cccc(C(F)(F)F)c1)Nc1cc(S(=O)(=O)NC2CC2)ccc1OCc1ccccc1` [Compound 193]: 1 to 10 µM. The value for `CC[S+]([O-])c1ccc(S(=O)(=O)NCC(F)(F)F)cc1NC(=O)Nc1cccc(C(F)(F)F)c1` (stereo not shown) [Compound 195, 4-(ethylsulfinyl)-N-(2,2,2-trifluoroethyl)-3-(3-(3-(trifluoromethyl)phenyl)ureido)benzenesulfonamide] was 0.1 to 1 µM; that for `CCS(=O)(=O)c1ccc(S(=O)(=O)NCC(F)(F)F)cc1NC(=O)Nc1cccc(C(F)(F)F)c1` [Compound 196, 4-(ethylsulfonyl)-N-(2,2,2-trifluoroethyl)-3-(3-(3-(trifluoromethyl)phenyl)ureido)benzenesulfonamide] was less than 0.1 µM.

Consider `O=C(Nc1cccc(C(F)(F)F)c1)Nc1cc(S(=O)(=O)NCC(F)(F)F)cnc1OCC1CC1` [Compound 197, 6-(cyclopropylmethoxy)-N-(2,2,2-trifluoroethyl)-5-(3-(3-(trifluoromethyl)phenyl)ureido)pyridine-3-sulfonamide], for which the IC50 is less than 0.1 µM. Consider `O=C(Nc1cccc(C(F)(F)F)c1)Nc1cc(S(=O)(=O)NC2COC2)cnc1OCC1CC1` [Compound 198, 6-(cyclopropylmethoxy)-N-(oxetan-3-yl)-5-(3-(3-(trifluoromethyl)phenyl)ureido)pyridine-3-sulfonamide], for which the IC50 was in the range of 0.1 to 1 µM. In the case of `CCOc1ncc(S(=O)(=O)NC2COC2)cc1NC(=O)Nc1cccc(C(F)(F)F)c1` [Compound 199, 6-ethoxy-N-(oxetan-3-yl)-5-(3-(3-(trifluoromethyl)phenyl)ureido)pyridine-3-sulfonamide], the IC50 was 0.1 to 1 µM. As for `N#CC1(NS(=O)(=O)c2cnc(OCC3CC3)c(NC(=O)Nc3cccc(C(F)(F)F)c3)c2)CC1` [Compound 200, N-(1-cyanocyclopropyl)-6-(cyclopropylmethoxy)-5-(3-(3-(trifluoromethyl)phenyl)ureido)pyridine-3-sulfonamide], the IC50 is 1 to 10 µM. Regarding `O=C(Nc1cccc(C(F)(F)F)c1)Nc1cc(S(=O)(=O)NCC(F)(F)F)cnc1OCC1CCOC1` (stereo not shown) [Compound 201, 6-((tetrahydrofuran-3-yl)methoxy)-N-(2,2,2-trifluoroethyl)-5-(3-(3-(trifluoromethyl)phenyl)ureido)pyridine-3-sulfonamide], the IC50 lay in the range of 0.1 to 1 µM. For the compound `CCOc1ncc(S(=O)(=O)NCC(F)(F)F)cc1NC(=O)Nc1cc(C(F)(F)F)ccn1` [Compound 202, 6-ethoxy-N-(2,2,2-trifluoroethyl)-5-(3-(4-(trifluoromethyl)pyridine-2-yl)ureido)pyridine-3-sulfonamide], the IC50 was in the range of 0.1 to 1 µM.

In the case of `O=C(Nc1cccc(C(F)(F)F)c1)Nc1cc(S(=O)(=O)NCC(F)(F)F)cnc1N1CCOCC1` [Compound 203, 6-morpholino-N-(2,2,2-trifluoroethyl)-5-(3-(3-(trifluoromethyl)phenyl)ureido)pyridine-3-sulfonamide], the IC50 fell in the range of 0.1 to 1 µM.

As for `O=C(Nc1cccc(C(F)(F)F)c1)Nc1cc(S(=O)(=O)NCC(F)(F)F)cnc1NCC1CC1` [Compound 204, 6-((cyclopropylmethyl)amino)-N-(2,2,2-trifluoroethyl)-5-(3-(3-(trifluoromethyl)phenyl)ureido)pyridine-3-sulfonamide], the IC50 was in the range of 1 to 10 µM.

With `O=C(Nc1cccc(S(=O)(=O)NCC(F)(F)F)c1)Nc1cc(C(F)(F)F)ccn1` [Compound 337, N-(2,2,2-trifluoroethyl)-3-(3-(4-(trifluoromethyl)pyridin-2-yl)ureido)benzenesulfonamide], the IC50 was in the range of 0.1 to 1 µM. On to `C#Cc1ccc(S(=O)(=O)NCC(F)(F)F)cc1NC(=O)Nc1cccc(C(F)(F)F)c1` [Compound 338, 4-ethynyl-N-(2,2,2-trifluoroethyl)-3-(3-(3-(trifluoromethyl)phenyl)ureido)benzenesulfonamide], for which the IC50 lay in the range of 0.1 to 1 µM. For the compound `CCc1ccc(S(=O)(=O)NCC(F)(F)F)cc1NC(=O)Nc1cccc(C(F)(F)F)c1` [Compound 339, 4-ethyl-N-(2,2,2-trifluoroethyl)-3-(3-(3-(trifluoromethyl)phenyl)ureido)benzenesulfonamide], the IC50 lay within 0.1 to 1 µM.

Turning to `O=C(Nc1cccc(C(F)(F)F)c1)Nc1cc(S(=O)(=O)Nc2ccccc2)ccc1Nc1ccccc1` [Compound 340, N-phenyl-4-(phenylamino)-3-(3-(3-(trifluoromethyl)phenyl)ureido)benzenesulfonamide], the IC50 was in the range of 1 to 10 µM. As for `CN(c1ccccc1)c1ccc(S(=O)(=O)Nc2ccccc2)cc1NC(=O)Nc1cccc(C(F)(F)F)c1` [Compound 341, 4-(methyl(phenyl)amino)-N-phenyl-3-(3-(3-(trifluoromethyl)phenyl)ureido)benzenesulfonamide], the IC50 is 1 to 10 µM. For the compound `O=C(Nc1cccc(C(F)(F)F)c1)Nc1cc(S(=O)(=O)Nc2ccccc2)ccc1-n1ccnc1` [Compound 342, 4-(1H-imidazol-1-yl)-N-phenyl-3-(3-(3-(trifluoromethyl)phenyl)ureido)benzenesulfonamide], the IC50 lay within 0.1 to 1 µM. The value for `Cc1nccn1-c1ccc(S(=O)(=O)Nc2ccccc2)cc1NC(=O)Nc1cccc(C(F)(F)F)c1` [Compound 343] was 1 to 10 µM; that for `O=C(Nc1cccc(C(F)(F)F)c1)Nc1cc(S(=O)(=O)Nc2ccccc2)ccc1-n1cccn1` [Compound 344] was 1 to 10 µM.

For `O=C(Nc1cccc(C(F)(F)F)c1)Nc1cc(S(=O)(=O)NC2CC2)ccc1-n1ccnc1` [Compound 345, N-cyclopropyl-4-(1H-imidazol-1-yl)-3-(3-(3-(trifluoromethyl)phenyl)ureido)benzenesulfonamide], the IC50 was 0.1 to 1 µM. The value for `O=C(Nc1cccc(C(F)(F)F)c1)Nc1cc(S(=O)(=O)N2CCOCC2)ccc1-n1ccnc1` [Compound 346] was 1 to 10 µM; that for `CC(C)N(C)c1ccc(S(=O)(=O)Nc2ccccc2)cc1NC(=O)Nc1cccc(C(F)(F)F)c1` [Compound 347] was 1 to 10 µM; that for `O=C(Nc1cccc(C(F)(F)F)c1)Nc1cc(S(=O)(=O)NC2CC2)ccc1N1CCOCC1` [Compound 348, N-cyclopropyl-4-morpholino-3-(3-(3-(trifluoromethyl)phenyl)ureido)benzenesulfonamide] was 1 to 10 µM. The value for `O=C(Nc1cccc(C(F)(F)F)c1)Nc1cc(S(=O)(=O)NC2CC2)ccc1N1CCCOCC1` [Compound 349, N-cyclopropyl-4-(1,4-oxazepan-4-yl)-3-(3-(3-(trifluoromethyl)phenyl)ureido)benzenesulfonamide] was 0.1 to 1 µM.

For `O=C(Nc1cccc(C(F)(F)F)c1)Nc1cc(S(=O)(=O)N2CCOCC2)ccc1N1CCOCC1` [Compound 350], the IC50 lay within 1 to 10 µM.

As to `Cc1ccc(NC(=O)Nc2c(Cl)cccc2Cl)cc1S(=O)(=O)Nc1ccc(Cl)cc1` [Compound 352], the IC50 was in the range of 0.1 to 1 µM. On to `O=C(Nc1cccc(C(F)(F)F)c1)Nc1cc(S(=O)(=O)Nc2ccccc2)ccc1-n1ccnc1` [Compound 354], for which the IC50 is 0.1 to 1 µM. The same measure for `O=C(Nc1cccc(C(F)(F)F)c1)Nc1cc(S(=O)(=O)NC2CC2)cnc1-n1ccnc1` [Compound 355]: 0.1 to 1 µM.

In the case of `O=C(Nc1cccc(C(F)(F)F)c1)Nc1cc(S(=O)(=O)N2CCOCC2)cnc1N1CCOCC1` [Compound 356], the IC50 lay within 1 to 10 µM. As for `O=C(Nc1cccc(C(F)(F)F)c1)Nc1cc(S(=O)(=O)NC2CC2)cnc1N1CCOCC1` [Compound 357], the IC50 fell in the range of 1 to 10 µM. The value for `O=C(Nc1cccc(C(F)(F)F)c1)Nc1cc(S(=O)(=O)NC2CC2)cnc1N1CCCOCC1` [Compound 358] was 0.1 to 1 µM; that for `O=C(Nc1cccc(C(F)(F)F)c1)Nc1cc(S(=O)(=O)Nc2ccccc2)ccc1-c1nccs1` [Compound 359] was 0.1 to 1 µM.
